Experimental data as given in patent US20100159496A1, “EVALUATION METHOD FOR PHOTOSYNTHESIS SAMPLE, EVALUATION SYSTEM FOR PHOTOSYNTHESIS SAMPLE, AND EVALUATION PROGRAM FOR PHOTOSYNTHESIS SAMPLE” (HAMAMATSU PHOTONICS K.K., priority 2006, published 2010).

Tested on: green algae
Test: Delayed luminescence of green algae in different redox states (first/second excitation light, waiting time), integration values
Assay type: cell-based, Pseudokircheneriella subcapitata
Conditions: for percentage (% oQ) of the oxidized plastoquinone: DBMIB 322 μg/L (FIG. 43)
From the text: In determining the relationship between the waiting time and the temporal variation of delayed luminescence, first, white light of 500 μmol·m−2·s−1 was illuminated for 10 seconds onto the measurement sample as the first excitation light for saturating photosynthetic electron transport (first illumination condition). Thereafter, a step of not illuminating light onto the measurement sample (referred to hereinafter as “waiting”) was provided and then red light of 50 μmol·m−2·s−1 was illuminated for 2 seconds as the second excitation light. The second excitation light can make delayed luminescence be emitted while hardly changing the redox state of the photosynthetic sample. Such a process is performed repeatedly with the waiting being changed to 0, 2, 10, 30, and 60 seconds. In addition, measurement is also made for a case where the illumination of the first excitation light and waiting are not executed and just the illumination of the second excitation light is performed, that is, for the case where the photosynthetic electron transport is not saturated.
In the following, a case of computing an integration value for each of an integration range (measurement time period) of 0.1 to 0.5 seconds of time after excitation, an integration range of 0.6 to 10 seconds after excitation, and an integration range of 10.1 seconds to 50 seconds after excitation shall be described. Setting of the integration ranges is not restricted to the above. The number of integration ranges may any number as long as it is no less than 1. In a case where a plurality of integration ranges are set up, the respective integration ranges may be made equal or not equal in time width. Furthermore, the integration ranges may not only be mutually set apart by a predetermined time as in the present embodiment but integration ranges may be set so as to be adjacent each other (for example, an integration range of 0.1 to 0.5 seconds of time after excitation and an integration range of 0.5 seconds to 10 seconds of time after excitation may be set up) and integration ranges may be set so as to overlap with each other (for example, an integration range of 0.1 to 0.5 seconds of time after excitation and an integration range of 0.4 seconds to 10 seconds of time after excitation may be set up).
In each graph of FIG. 29, the abscissa expresses the measurement condition and the ordinate expresses the integration value (counts) of the delayed luminescence intensity. In the following, the integration value in the integration range of 0.1 to 0.5 seconds of time after excitation, the integration value in the integration range of 0.6 to 10 seconds after excitation, and the integration value in the integration range of 10.1 seconds to 50 seconds after excitation shall be referred to respectively as integration value 1, integration value 2, and integration value 3. FIGS. 29A, 29B, and 29C are graphs respectively of the integration value 1, integration value 2, and integration value 3.
First, a method for computing an evaluation value for evaluating the electron accumulation state of the PSII of the photosynthetic sample shall be described. As one such type of evaluation value, there is, for example, a PSII electron accumulation change (en), which indicates how the electron accumulation in the PSII has changed. This value ell can be determined as: (integration value 1 of the evaluation sample)/(integration value 1 of the standard sample)×100. The PSII electron accumulation change (eII) can be computed for the respective conditions of non-saturation, 0-second waiting time, 10-second waiting time, and 60-second waiting time.
As mentioned above, the transient increase of the integration value 1 in the 0-second waiting time reflects increase of the electron accumulation in the PSII due to the takeout of electrons from the PSII becoming rate-limiting. […]

[1] = all conditions (non-saturation, 0-, 10-, 60-second waiting time), DCMU 12 ug/L, Ant-A 0.55 mg/L

SMILES | integration value 1 (0.1 to 0.5 seconds after excitation) (10-second waiting time, Ant-A 0.55 mg/L) | cyclic electron transport (cI) from the PSI (10-second waiting time, Ant-A 0.55 mg/L (FIG. 44)) | integration value 2 (0.6 to 10 seconds after excitation) compared with standard sample [1] | integration value 3 (10.1 to 50 seconds after excitation) compared with standard sample [1] | PSI electron accumulation change (eI) (non-saturation case, Ant-A 0.55 mg/L, integration value 3 of evaluation sample/standard sample×100 (FIG. 44)) | integration value 1 (0.1 to 0.5 seconds after excitation) compared with standard sample (non-saturation, 0-second and 60-second waiting time, Ant-A 0.55 mg/L) | integration value 2 (0.6 to 10 seconds after excitation) compared with standard sample (0-second waiting time, DBMIB 322 μg/L) | percentage (% oQ) of the oxidized plastoquinone (10-second waiting time) | increase (increment) of integration value 3 at the 10-second waiting time compared with standard sample (10-second waiting time, DBMIB 322 μg/L, Ant-A 0.55 mg/L) | percentage (% oQ) of the oxidized plastoquinone (60-second waiting time) | change (vQ) of redox reaction magnitude sQ (DBMIB 322 μg/L, sQ of evaluation sample/sQ of standard sample (FIG. 43)) | integration value 1 (0.1 to 0.5 seconds after excitation) compared with standard sample (all conditions, DBMIB 322 μg/L) | integration value 3 (10.1 to 50 seconds after excitation) compared with standard sample (non-saturation, 0-second and 60-second waiting time, DBMIB 322 μg/L) | integration value 2 (0.6 to 10 seconds after excitation) compared with standard sample (non-saturation, 10-second and 60-second waiting time, DBMIB 322 μg/L) | integration value 1 (0.1 to 0.5 seconds after excitation) compared with standard sample (0-second waiting time, DCMU 12 ug/L) | PSII electron takeout change (vII) (DCMU 12 ug/L, tII of evaluation sample/tII of standard sample×100 (FIG. 42)) | PSII electron accumulation change (eII) (non-saturation state, DCMU 12 ug/L, integration value 1 of evaluation sample/standard sample×100 (FIG. 42)) | integration value 1 (0.1 to 0.5 seconds after excitation) compared with standard sample (non-saturation, 10-second and 60-second waiting time, DCMU 12 ug/L)
CCCCCC[C@H]1C(=O)O[C@H](C)[C@H](NC(=O)c2cccc(NC=O)c2O)C(=O)O[C@@H](C)[C@@H]1OC(=O)CC(C)C [Ant-A, Antimycin A] | increased in the same manner as in the 0-second waiting time case | −12 | less than those of the standard sample | less than those of the standard sample | 89 | a large difference was not seen |  |  |  |  |  |  |  |  |  |  |  | 
CC1=C(Br)C(=O)C(C(C)C)=C(Br)C1=O [DBMIB, 2,5-dibromo-6-isopropyl-3-methyl-1,4-benzoquinone] |  |  |  |  |  |  | a large difference is not seen | 4 | lower than that of the standard sample | 22 | 30 | greater than those of the standard sample | a large difference was not seen | lower than that of the standard sample |  |  |  | 
CN(C)C(=O)Nc1ccc(Cl)c(Cl)c1 [DCMU, 3-(3,4-dichlorophenyl)-1,1-dimethyl-urea] |  |  | less than those of the standard sample | less than those of the standard sample |  |  |  |  |  |  |  |  |  |  | a significant difference was not seen | negative | 188 | nearly twice the values of the standard sample
